In the supplement of paper PMC3493320:

Tested on: NCI-H295R
Test: IC50 (antiproliferative, ATP content)
Details: 48 h
Method in brief: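 Adrenocortical carcinoma cells were plated at 1500 per well in 1536-well plates in serum-free DMEM with ITS supplement, left overnight, then given library compounds by pin transfer at 8 final concentrations spanning 0.6 nM to 46 µM and held 48 h at 37 °C, 5% CO2. ATP was measured as CellTiter-Glo luminescence after 20 min at room temperature and scaled between vehicle and positive-control wells. A four-parameter logistic model was fitted to each series. The IC50 was taken from these fits, and compounds without a concentration response were recorded as above the top dose.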

| IC50 [µM] | Compound |
| --- | --- |
| > 46 | CCOc1ccc(NC(=O)CC(C)O)cc1 (configuration not stated) |
| > 46 | CCCCCCCCOc1ccc(C(=O)c2ccccc2)c(O)c1 |
| > 46 | CCOc1ccc2ccccc2c1C(=O)N[C@@H]1C(=O)N2[C@@H]1SC(C)(C)[C@@H]2C(=O)[O-].O.[Na+] |
| > 46 | NC(=O)CC[C@@H](N)C(=O)O |
| > 46 | CC(NNC(=O)c1ccccc1)c1ccccc1 (configuration not stated) |
| > 46 | CCC(C)[C@@H](N)C(=O)O (some centres not stated) |
| > 46 | CN1C(=O)CC[C@H]1c1cccnc1 |
| > 46 | CC(O)C(=O)O.CCOc1ccc2nc3cc(N)ccc3c(N)c2c1.O |
| > 46 | CCN(CC)CC#CCOC(=O)C(O)(c1ccccc1)C1CCCCC1.Cl (configuration not stated) |
| > 46 | Nc1ncn([C@H]2C[C@H](O)[C@@H](CO)O2)c(=O)n1 |
| > 46 | NC(=O)OC[C@@H]1[C@H](NC(=O)/C(=N\OCC(=O)[O-])c2csc(N)n2)C(=O)N1S(=O)(=O)[O-].[Na+].[Na+] |
| > 46 | O[C@H]1[C@@H]([C@]2=CC(O)=C(O)C=C2)OC3=C(C(O)=CC(O)=C3)C1 |
| > 46 | CCn1cc(C(=O)O)c(=O)c2ccc(C)nc21 |
| > 46 | CCC1NC(=O)c2cc(S(N)(=O)=O)c(Cl)cc2N1 (configuration not stated) |
| > 46 | CN1C(CCl)Nc2cc(Cl)c(S(N)(=O)=O)cc2S1(=O)=O (configuration not stated) |
| > 46 | O=C(NCCN1CCOCC1)c1ccc(Cl)cc1 |
| > 46 | Cl.NCCS |
| > 46 | O=C(C)O[C@@](CC3)([C@](C)=O)[C@]2(C)[C@]3([H])[C@]1([H])C=C(C)C([C@@](CC4)(C)[C@]([H])1CC2)=CC4=O |
| > 46 | CCCCCCCCCCCCCCCC(=O)OC(C)C |
| > 46 | C#Cc1cccc(Nc2ncnc3cc(OCCOC)c(OCCOC)cc23)c1 |
| > 46 | CCCOc1ccccc1-c1nc2[nH]nnc2c(=O)[nH]1 |
| > 46 | CCOC(=O)OC(C)OC1=C(C(=O)Nc2ccccn2)N(C)S(=O)(=O)c2ccccc21 (configuration not stated) |
| > 46 | CCCC(=O)Nc1ncnc2c1ncn2[C@@H]1O[C@@H]2COP(=O)(O)O[C@H]2[C@H]1OC(=O)CCC |
| > 46 | COc1ccc(O)cc1 |
| > 46 | CC(=O)NCCCS(=O)(=O)[O-].CC(=O)NCCCS(=O)(=O)[O-].[Ca+2] |
| > 46 | COc1cc(Cc2cnc(N)nc2N)cc(OC)c1OC |

| IC50 [µM] | Compound |
| --- | --- |
| > 46 | O=C(O)C1=CC2=C(C=CC=C2)C(CC3=C(O)C(C(O)=O)=CC4=C3C=CC=C4)=C1O.O=C([C@H](NC([C@@H](NC([C@@H](NC([C@@H](NC([C@@H](N[C@]([C@@H](N%11)CCC%11=O)=O)CC%10=CNC=N%10)=O)CC8=CNC9=CC=CC=C89)=O)CO)=O)CC7=CC=C(C=C7)O)=O)CC5=CNC6=CC=CC=C56)N[C@H](C(N[C@H](C(N%12CCC[C@@H]%12[C@@](NCC(N)=O)=O)=O)CCCNC(N)=N)=O)CC(C)C |
| > 46 | CC(=O)N[C@@H]([C@@H](O)[C@H](O)[C@H](O)CO)[C@@H](O)CC(=O)C(=O)O |
| > 46 | CC(C)CCC[C@@H](C)[C@H]1CC[C@H]2[C@@H]3CC=C4C[C@@H](O)CC[C@]4(C)[C@H]3CC[C@]12C |
| > 46 | Cc1cccc(N(C)C(=S)Oc2ccc3ccccc3c2)c1 |
| > 46 | O=C1NS(=O)(=O)c2ccccc21 |
| > 46 | CCOC(C)OCC |
| > 46 | C[C@@H]1C[C@H]2[C@@H]3CCC4=CC(=O)C=C[C@]4(C)[C@@]3(F)C(O)C[C@]2(C)[C@H]1C(=O)CO (some centres not stated) |
| > 46 | O=C2N1[C@]([C@@]([H])2NC(CC3=CC=CC=C3)=O)([H])SC(C)(C)[C@@H]1[C@@](O)=O.O=C5N4[C@]([C@@]([H])5NC(CC6=CC=CC=C6)=O)([H])SC(C)(C)[C@@H]4[C@@](O)=O.C7(CNCCNCC8=CC=CC=C8)=CC=CC=C7 |
| > 46 | O=c1[nH]c(=O)n([C@H]2C[C@H](O)[C@@H](CO)O2)cc1/C=C/Br |
| > 46 | C#CCN(C)CCCOc1ccc(Cl)cc1Cl.Cl |
| > 46 | O=P(O)(O)C(O)(Cn1ccnc1)P(=O)(O)O |
| > 46 | OCCN(CCO)c1nc(N2CCCCC2)c2nc(N(CCO)CCO)nc(N3CCCCC3)c2n1 |
| > 46 | O=C([O-])c1nc(O)nc(O)n1.[K+] |
| > 46 | F[C@]1([C@](C)2C=C3)[C@@H](O)C[C@@]([C@]([C@@](CO)=O)(O)[C@H]4C)(C)[C@](C4)([H])[C@@]([H])1CCC2=CC3=O |
| > 46 | CCC(=O)OCC(=O)[C@@]1(OC(=O)CC)[C@H](C)C[C@H]2[C@H]3[C@H]([C@@H](O)C[C@@]21C)[C@@]1(C)C=CC(=O)C=C1C[C@H]3Cl |
| > 46 | CC(C)(CO)[C@@H](O)C(=O)NCCCO |
| > 46 | C[C@H](C(=O)[O-])c1cccc(Oc2ccccc2)c1.C[C@H](C(=O)[O-])c1cccc(Oc2ccccc2)c1.O.O.[Ca+2] |
| > 46 | Cn1c([N+](=O)[O-])cnc1COC(N)=O |
| > 46 | C[C@@H]1CC[C@@]2(OC1)O[C@H]1C[C@H]3[C@@H]4CC[C@H]5C[C@@H](O)CC[C@]5(C)[C@H]4CC(=O)[C@]3(C)[C@H]1[C@@H]2C |
| > 46 | CC(C(=O)O)c1ccc2c(c1)Cc1cccnc1O2 (configuration not stated) |
| > 46 | CN1C[C@@H]2C[C@H]1CN2c1cc2c(cc1F)c(=O)c(C(=O)O)cn2C1CC1 |
| > 46 | CN1CCC(=C2c3ccccc3CC(=O)c3sccc32)CC1 |
| > 46 | Oc1ccc(C2CNCCc3c2cc(O)c(O)c3Cl)cc1 (configuration not stated) |
| > 46 | Cc1ccnc(NS(=O)(=O)c2ccc(N)cc2)n1 |
| > 46 | CC1=C(/C=C/C(C)=C/C=C/C(C)=C/C(=O)Oc2c(C)c(C)c3c(c2C)CC[C@@](C)(CCC[C@H](C)CCC[C@H](C)CCCC(C)C)O3)C(C)(C)CCC1 |
| > 46 | CC[N+](C)(C)c1cccc(O)c1.[Cl-] |

| IC50 [µM] | Compound |
| --- | --- |
| > 46 | FC(F)OC(Cl)C(F)(F)F (configuration not stated) |
| > 46 | COc1cc(O)cc(O)c1 |
| > 46 | COc1ccc(C(=O)c2ccccc2)c(O)c1 |
| > 46 | CCC(=O)[C@@]1(C)[C@H](C)C[C@H]2[C@@H]3CCC4=CC(=O)C=C[C@]4(C)[C@H]3[C@@H](O)C[C@@]21C |
| > 46 | CCOC(=O)[C@@](C)(N)Cc1ccc(O)c(O)c1.Cl |
| > 46 | C[Si](C)(C)O[Si](C)(C)C |
| > 46 | CC1(C)S[C@@H]2[C@H](/N=C/N3CCCCCC3)C(=O)N2[C@H]1C(=O)O |
| > 46 | NC(=O)N[C@@H](CCC(=O)O)C(=O)O |
| > 46 | CC(=O)OCC(=O)[C@@]1(O)CC[C@H]2[C@@H]3CCC4=CC(=O)C=C[C@]4(C)[C@@]3(F)[C@@H](O)C[C@@]21C |
| > 46 | OCC(O)CN1CCN(c2ccccc2)CC1 (configuration not stated) |
| > 46 | O=c1[nH]c2cc(C(F)(F)F)c(N3CCOCC3)cc2n(CP(=O)(O)O)c1=O |
| > 46 | CCN(CC)S(=O)(=O)c1ccc(C(=O)O)cc1 |
| > 46 | Cc1cccc(C)c1OCC(C)N.Cl (configuration not stated) |
| > 46 | Cc1cccc(Nc2cc(Cl)nc(SCC(=O)O)n2)c1C |
| > 46 | O=C(CCCN1CCN(c2ccccn2)CC1)c1ccc(F)cc1 |
| > 46 | c1cnc(N2CCN(Cc3ccc4c(c3)OCO4)CC2)nc1 |
| > 46 | CCN(CC)CC(=O)Nc1c(C)cccc1C |
| > 46 | Cc1ncc[nH]1 |
| > 46 | CCCCOC(=O)c1ccc(N)cc1 |
| > 46 | Nc1c(CC(=O)[O-])cccc1C(=O)c1ccc(Br)cc1.Nc1c(CC(=O)[O-])cccc1C(=O)c1ccc(Br)cc1.O.O.O.[Na+].[Na+] |
| > 46 | CCCCCC(N)=O |
| > 46 | C[C@H](N)C(=O)N[C@@H](C)P(=O)(O)O |
| > 46 | Cl.Cl.OCCN1CCN(CC/C=C2\c3ccccc3Sc3ccc(Cl)cc32)CC1 |
| > 46 | COc1c2occc2cc2ccc(=O)oc12 |
| > 46 | CC1CCC(C(C)C)C(OC(=O)c2ccccc2O)C1 (configuration not stated) |
| > 46 | C[C@@H]1C[C@H]2[C@@H]3CCC4=CC(=O)C=C[C@]4(C)[C@@]3(F)[C@@H](O)C[C@]2(C)[C@@]1(O)C(=O)COC(=O)c1cccc(S(=O)(=O)[O-])c1.[Na+] |

| Compound | IC50 [µM] |
| --- | --- |
| Cc1cc(C(=O)O)c(C)n1-c1cccc(C(=O)O)c1.O=C1C[C@@H]2OCC=C3CN4CC[C@]56c7ccccc7N1[C@H]5[C@H]2[C@H]3C[C@H]46 | > 46 |
| CCCN1C[C@H](CSC)C[C@@H]2c3cccc4[nH]cc(c34)C[C@H]21.CS(=O)(=O)O | > 46 |
| NCC(CC(=O)O)c1ccc(Cl)cc1 (configuration not stated) | > 46 |
| CCCCCCC(=O)CCCCCC/C=C/C[C@@H](O)[C@H](O)[C@@](N)(CO)C(=O)O | > 46 |
| O=Cc1ccco1 | > 46 |
| O=C(O)C(Cl)Cl | > 46 |
| CO/N=C(\C(=O)N[C@@H]1C(=O)N2C(C(=O)[O-])=C(C[n+]3cccc4c3CCC4)CS[C@H]12)c1csc(N)n1.O=S(=O)(O)O | > 46 |
| CC[N+](CC)(CC)CC.[Cl-] | > 46 |
| O=[C@@](C)[C@@H]3[C@]2(C)[C@](CC3)([H])[C@@]1([H])[C@@](CC2)([H])[C@](CC[C@](O)(C)C4)(C)[C@@]4([H])CC1 | > 46 |
| CN1CCN(CCCN2c3ccccc3Sc3ccc(S(=O)(=O)N(C)C)cc32)CC1.CS(=O)(=O)O.CS(=O)(=O)O | > 46 |
| CC[NH+](CC)CCc1nc(-c2ccccc2)no1.O=C([O-])CC(O)(CC(=O)O)C(=O)O | > 46 |
| CCC(C)(C)c1ccc(O)cc1 | > 46 |
| CO/N=C(\C(=O)N[C@@H]1C(=O)N2C(C(=O)O)=C(Cn3ccc(=N)n3CCO)CS[C@H]12)c1csc(N)n1.O=S(=O)(O)O | > 46 |
| CCN(C(C)=O)c1cccc(-c2ccnc3c(C#N)cnn23)c1 | > 46 |
